We go through 11 compounds from US20170182088A1, “METHOD AND APPARATUS FOR ADMINISTERING NITRIC OXIDE WITH SUPPLEMENTAL DRUGS” (GENO LLC, priority 2015, published 2017).

One data set has as its system PMN (Neutrophil). The settings on record: cited from earlier work.
The target in another data set is T1, TRPM2 (Mus musculus, UniProt Q91YD4).
T1 construct: endogenous in cells; host or cells: PMN (neutrophils), fMLP-stimulated; work retold from a cited abstract (J. Immunol. 2010, 184)
The settings on record: responses comparable to fMLP-stimulated TRPM2 KO PMN; cited from earlier work.

The next data set deals with neonatal rats. The settings on record: cited from earlier work.
A further data set deals with neonatal piglets. To be noted: short-term inhaled exposure; cited from earlier work.
The next data set deals with Angiotensin II. The settings on record: cited from earlier work.
Data set [1] concerns CTGF. The settings on record: fibroblasts exposed to TGF-β; cited from earlier work.
Data set [2] relates to CTGF. The settings on record: infusion, scleroderma patients; cited from earlier work.
Data set [3] deals with mice with intratracheal administration of LPS. In words: LPS-induced lung injury in mice (intratracheal LPS). It counts as in vivo. To be noted: for lung injury after intratracheal LPS: 2% H2 and/or 20 ppm NO for 3 hours starting at 5 minutes or 3 hours after LPS; for pulmonary inflammation and cell apoptosis: H2 and/or NO treatment.
For the next data set, the system named is NF-κB. The experiment in a line: LPS-induced pulmonary NF-κB activation. The settings on record: H2 and/or NO treatment. It counts as in vivo, mice.
In another data set the test system is polymicrobial sepsis. The experiment in a line: Polymicrobial sepsis-induced lung injury. It counts as in vivo. The settings on record: H2 and/or NO treatment. From the text:
However until applicants' discovery, there has not been a successful combination of hydrogen gas with breathing gas using the claimed apparatus and methods. Applicants have discovered that NO's effect as an antioxidant may be enhanced by eliminating highly reactive by-products of NO inhalation such as peroxynitrite, by adding H2 to inhaled NO gas.

A further data set has as its system rats. To be noted: inhaled; cited from earlier work.
A further data set addresses T2, Nox4 (Homo sapiens, UniProt Q9NPH5).
T2 construct: endogenous in cells; host or cells: pulmonary vascular wall cells under hypoxia
T2 sequence (Q9NPH5 1-578): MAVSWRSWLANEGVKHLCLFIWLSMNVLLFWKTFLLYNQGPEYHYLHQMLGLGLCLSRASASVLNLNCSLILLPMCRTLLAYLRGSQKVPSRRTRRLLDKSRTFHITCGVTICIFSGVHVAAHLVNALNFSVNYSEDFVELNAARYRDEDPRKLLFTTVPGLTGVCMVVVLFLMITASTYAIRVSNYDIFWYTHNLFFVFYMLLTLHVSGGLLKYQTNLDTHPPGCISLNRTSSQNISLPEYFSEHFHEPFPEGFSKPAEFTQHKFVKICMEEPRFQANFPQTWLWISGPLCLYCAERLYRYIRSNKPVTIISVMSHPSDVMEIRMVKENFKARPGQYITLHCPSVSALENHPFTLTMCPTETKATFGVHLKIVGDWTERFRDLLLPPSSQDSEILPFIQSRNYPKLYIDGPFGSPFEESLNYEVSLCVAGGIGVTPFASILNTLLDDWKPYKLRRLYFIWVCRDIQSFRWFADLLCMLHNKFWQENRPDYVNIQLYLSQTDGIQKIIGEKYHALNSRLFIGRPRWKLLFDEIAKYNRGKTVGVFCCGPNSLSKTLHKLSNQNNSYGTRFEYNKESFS
T2 sequence (P13498 1-195 partner): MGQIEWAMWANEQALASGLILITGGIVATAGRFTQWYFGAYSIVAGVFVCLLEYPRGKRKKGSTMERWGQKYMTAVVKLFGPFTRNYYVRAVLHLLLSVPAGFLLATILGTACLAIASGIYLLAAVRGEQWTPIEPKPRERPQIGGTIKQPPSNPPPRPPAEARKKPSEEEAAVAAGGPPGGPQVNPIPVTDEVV
The settings on record: cited from earlier work.

A further data set has as its system brain injury. To be noted: inhaled, acute rat model; cited from earlier work.

T1 sequence (Q91YD4 whole entry): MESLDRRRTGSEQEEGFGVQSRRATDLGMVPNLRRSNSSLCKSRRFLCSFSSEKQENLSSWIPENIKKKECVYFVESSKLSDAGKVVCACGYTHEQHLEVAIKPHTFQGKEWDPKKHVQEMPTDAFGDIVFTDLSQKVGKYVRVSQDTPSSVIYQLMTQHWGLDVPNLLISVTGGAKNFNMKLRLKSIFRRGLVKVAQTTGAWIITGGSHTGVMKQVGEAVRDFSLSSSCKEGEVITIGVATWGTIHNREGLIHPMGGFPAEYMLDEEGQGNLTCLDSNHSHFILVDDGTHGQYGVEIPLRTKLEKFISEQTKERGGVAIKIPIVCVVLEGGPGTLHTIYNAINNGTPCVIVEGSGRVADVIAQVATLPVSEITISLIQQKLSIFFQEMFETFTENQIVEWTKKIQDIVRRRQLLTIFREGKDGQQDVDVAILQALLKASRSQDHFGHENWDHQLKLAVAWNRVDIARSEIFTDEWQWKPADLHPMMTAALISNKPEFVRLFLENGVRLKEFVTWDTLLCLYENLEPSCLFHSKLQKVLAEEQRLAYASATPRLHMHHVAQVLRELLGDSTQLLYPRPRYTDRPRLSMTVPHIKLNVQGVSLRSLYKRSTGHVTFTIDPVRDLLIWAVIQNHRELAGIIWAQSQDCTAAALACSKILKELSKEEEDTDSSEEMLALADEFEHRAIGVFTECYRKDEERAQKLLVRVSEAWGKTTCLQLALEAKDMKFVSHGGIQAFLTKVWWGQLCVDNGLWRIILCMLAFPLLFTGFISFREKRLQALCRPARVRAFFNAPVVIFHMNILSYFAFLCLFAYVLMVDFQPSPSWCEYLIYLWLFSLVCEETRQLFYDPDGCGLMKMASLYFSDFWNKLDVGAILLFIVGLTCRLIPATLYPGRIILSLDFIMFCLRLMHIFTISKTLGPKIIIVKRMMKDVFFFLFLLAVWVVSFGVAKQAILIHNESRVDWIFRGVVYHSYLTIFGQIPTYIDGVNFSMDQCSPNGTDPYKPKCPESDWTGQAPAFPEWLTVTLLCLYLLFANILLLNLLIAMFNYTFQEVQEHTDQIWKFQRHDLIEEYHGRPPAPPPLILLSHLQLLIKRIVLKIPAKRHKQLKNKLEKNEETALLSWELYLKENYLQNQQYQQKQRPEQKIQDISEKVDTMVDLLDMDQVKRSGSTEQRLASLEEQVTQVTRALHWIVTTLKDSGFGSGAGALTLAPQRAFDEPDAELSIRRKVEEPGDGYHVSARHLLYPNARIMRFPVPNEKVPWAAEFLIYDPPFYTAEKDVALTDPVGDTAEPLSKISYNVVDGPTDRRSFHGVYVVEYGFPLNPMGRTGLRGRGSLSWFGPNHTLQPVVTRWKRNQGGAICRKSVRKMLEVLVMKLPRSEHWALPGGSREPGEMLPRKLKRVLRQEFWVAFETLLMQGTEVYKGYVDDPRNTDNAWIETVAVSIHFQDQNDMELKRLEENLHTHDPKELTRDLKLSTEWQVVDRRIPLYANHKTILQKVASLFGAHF

In the case of `Clc1ccc(COC(Cn2ccnc2)c2ccc(Cl)cc2Cl)cc1` (stereo not drawn) [Econazole], in the data set with PMN (Neutrophil), the PMN directionality entry is recorded as “significantly inhibited”. For the same compound, at TRPM2, the “Ca2+ influx” value was “blocked”.
As to `COC(=O)[C@@H](N)CCCNC(=N)N[N+](=O)[O-]` [Nw-nitro-l-arginine methyl ester], the “survival on exposure to >95% O2 compared with control rats” value with neonatal rats is “significantly fewer survived”.
In the case of `O=O` [O2, oxygen], the lung collagen accumulation result in the data set on neonatal piglets was “increases”.
As to `CC(=O)N[C@@H](CS)C(=O)O` [N-acetylcysteine], the “Ang II-stimulated DNA synthesis, cell migration, pro-collagen α1(I) mRNA expression, secretion of TGF-β1 and inflammatory cytokines” value in the data set with Angiotensin II is recorded as “attenuated”.
As to `Clc1ccccc1C(c1ccccc1)(c1ccccc1)n1ccnc1` [clotrimazole], the PMN directionality result in the data set on PMN (Neutrophil) is “significantly inhibited”. The “Ca2+ influx” value on TRPM2 is “blocked”.
For `CC#CCC(C)[C@H](O)/C=C/[C@@H]1[C@H]2C/C(=C/CCCC(=O)O)C[C@H]2C[C@H]1O` (stereo partly drawn) [Iloprost], in the data set with CTGF [1], the “increase in collagen synthesis” value is reported as “blocks” and the “induction of CTGF” value is reported as “blocks”. In the data set with CTGF [2], the “dermal CTGF levels” value is recorded as “marked decrease”.
As to `[N]=O` [NO, nitric oxide], in data set [3], the “lung injury after intratracheal LPS” value is reported as “significantly improved”; the “pulmonary inflammation and cell apoptosis” value is given as “down-regulated”. Also, in the data set on NF-κB, the “LPS-induced pulmonary early and late NF-κB activation” value is recorded as “inhibited”. For the same compound, the “lung injury in polymicrobial sepsis” value in the data set on polymicrobial sepsis is recorded as “significantly attenuated”. In addition, the “survival in high O2 exposure” value in the data set with rats is “increase”. In addition, the lung collagen accumulation entry in the data set with neonatal piglets is listed as “increases”.
On to `CN(C)c1cccc(-c2c3c(=O)n(-c4ccccc4Cl)[nH]c3cc(=O)n2C)c1` [GKT137831], for which, on Nox4, the “hypoxia-induced pulmonary vascular cell proliferation” value is recorded as “attenuates”.
As for `[HH]` [H2, hydrogen], in data set [3], the “lung injury after intratracheal LPS” value is on record as “significantly improved”; the “pulmonary inflammation and cell apoptosis” value is reported as “down-regulated”. The “LPS-induced pulmonary early and late NF-κB activation” value in the data set with NF-κB is “inhibited”. For the same compound, the “lung injury in polymicrobial sepsis” value with polymicrobial sepsis is listed as “significantly attenuated”. Further, the “brain injury associated with focal ischemia-reperfusion” value in the data set on brain injury was “markedly suppressed”.
On to `O=C(O)c1ccccc1Nc1cccc(C(F)(F)F)c1` [FA], for which, on TRPM2, the “Ca2+ influx” value is recorded as “blocked”.
With `c1ccc2c(c1)[I+]c1ccccc1-2` [diphenylene iodonium], the “Ang II-stimulated DNA synthesis, cell migration, pro-collagen α1(I) mRNA expression, secretion of TGF-β1 and inflammatory cytokines” value in the data set on Angiotensin II was “attenuated”.
